Results published in patent US9884854B2, “N-[(pyrimidinylamino)propanyl]-and N[(pyrazinylamino)proppanyl]arylcarboxamides” (Boehringer Ingelheim International GmbH, priority 2016, dated 2018).

Molecular target: T1, human Orexin 1 receptor (Homo sapiens, UniProt O43613)
T1 construct: stably expressing the full-length human Orexin 1 receptor and the aequorin photoprotein; expressed in transfected cells; host or cells: CHO-K1 (CHO-K1/hOx1), co-expressing aequorin
T1 sequence (O43613 1-425): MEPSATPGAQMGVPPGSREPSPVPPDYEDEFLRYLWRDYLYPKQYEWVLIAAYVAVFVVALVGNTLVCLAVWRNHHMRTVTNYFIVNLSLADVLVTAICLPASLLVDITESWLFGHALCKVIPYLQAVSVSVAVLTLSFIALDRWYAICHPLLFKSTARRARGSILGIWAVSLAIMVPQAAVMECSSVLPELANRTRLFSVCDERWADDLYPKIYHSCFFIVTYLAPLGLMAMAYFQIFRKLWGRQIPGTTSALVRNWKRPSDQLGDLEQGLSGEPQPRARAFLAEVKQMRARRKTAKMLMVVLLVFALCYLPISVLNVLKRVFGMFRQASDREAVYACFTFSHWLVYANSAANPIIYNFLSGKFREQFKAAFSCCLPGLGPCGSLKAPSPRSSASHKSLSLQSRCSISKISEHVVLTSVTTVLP
Experiment: Assay A: OX1R IP1 (in vitro OX1R potency)
Assay type: cell-based
Settings: for Kb: 50 nM Orexin A concentration
Text: Activation of the orexin receptors expressed in cell lines results in an increase in intracellular IP3 concentration. IP1, a downstream metabolite of IP3, accumulates in cells following receptor activation and is stable in the presence of LiCl. Using Homogeneous Time-Resolved Fluorescence technology with Lumi4-Tb cryptate (commercially available from Cisbio Bioassay.) and a suitable fluorescence plate reader. […] This technique is used to characterize pharmacological modification of the orexin receptors.
A. In Vitro Testing of OX1R Potency: OX1R IP1
IP1 measurements are performed in CHO-K1 cells stably expressing the full-length human Orexin 1 receptor and the aequorin photoprotein. Cells are cultivated in Ham's nutrient mixture F12 medium with 10% fetal calf serum, in a 37° C., 95% humidity and 5% CO2 incubator. The CHO-K1/hOx1 cell mass is expanded to larger cell numbers. The cells are obtained as frozen cells in cryo-vials and stored until use at −150° C. […] In preparation for the assay, 24 hours before the assay, the cells are thawed at 37° C. and immediately diluted with cell culture medium. After centrifugation, the cell pellet is re-suspended in medium and then distributed into the assay plates with a density of 10000 cells/25 μL per well. The plates are incubated for one hour at room temperature to reduce edge effects before they are incubated for 24 hours at 37° C./5% CO2. Compounds are prepared by an 8-point serial dilution in DMSO and a final dilution step into assay buffer (HBSS with 20 mM HEPES, 0.1% BSA and 50 mM LiCl, pH 7.4) to ensure a final DMSO concentration of 1% in the assay.
On the day of the assay, cells in the plate are washed twice with 60 μL assay buffer (20 μL buffer remained in the wells after washing), followed by adding 5 μL per well of compounds diluted in assay buffer. After 15 minutes of incubation at room temperature 5 μL per well of Orexin A peptide (final concentration: 0.5 nM, and/or 50 nM) dissolved in assay buffer is added to the assay plate. The assay plate is incubated for 60 minutes at 37° C. Then 5 μl per well of Anti-IP1-Cryptate Tb solution and 5 μl per well of IP1-d2 dilution are added and the plate is incubated for a further 60 minutes light protected at room temperature. […] 8-point four parametric non-linear curve fitting and determination of IC50 values and Hill slopes is performed using a regular analysis software e.g. AssayExplorer (Accelrys).
Kb values from Assay A (OX1R) and Assay B (OX2R) can then provide a selectivity ratio which is independent of the agonist (Orexin A) concentration.

CCN(C(=O)c1ccccc1-n1nccn1)[C@@H](C)CNc1ncc(C(F)(F)F)cn1 [Example 1]
OX2R Kb/OX1R Kb: 404 | Kb: 0.048 nM

CCN(C(=O)c1cccc(F)c1-n1nccn1)[C@@H](C)CNc1ncc(C(F)(F)F)cn1 [Example 18]
OX2R Kb/OX1R Kb: 352 | Kb: 0.0512 nM

CCN(C(=O)c1nc(C)ccc1-n1nccn1)[C@@H](C)CNc1ncc(C(F)(F)F)cn1 [Example 9]
OX2R Kb/OX1R Kb: 310 | Kb: 0.106 nM | higher potency (versus Example 46 in WO2016/034882): > 10 fold | higher potency (versus Example 73 in WO2016/034882): approximately 3 fold

CCN(C(=O)c1cnc(C)nc1-c1ccccc1)[C@@H](C)CNc1ncc(C(F)(F)F)cn1 [Example 17]
OX2R Kb/OX1R Kb: 2500 | Kb: 0.0216 nM
